Source: patent EP0215063B1, “PYRIDO (2,3-d )PYRIMIDIN DERIVATIVES” (priority 1985, dated 1986)
pIC50: −log10 of the molar value. “And” between values parts separate entries of the source, which are not always exact repeats. Identical values can stand only once. Like-named read-outs stand apart in the source and are kept apart here.

Experiments:
mouse L1210 leukemia = settings: literature; cited from earlier work
[1] = literature (Taylor et al.); cited from earlier work
[2] = literature; cited from earlier work
dihydrofolate reductase = target: T1, dihydrofolate reductase (Homo sapiens, UniProt P00374); settings: literature (De Graw et al.); cited from earlier work
T1 sequence (P00374 1-187): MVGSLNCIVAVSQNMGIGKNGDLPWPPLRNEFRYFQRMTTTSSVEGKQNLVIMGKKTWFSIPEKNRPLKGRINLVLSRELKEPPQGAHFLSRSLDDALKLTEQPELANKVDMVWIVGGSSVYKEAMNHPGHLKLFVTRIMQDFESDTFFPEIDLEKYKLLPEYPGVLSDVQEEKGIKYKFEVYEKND

[3] = system: L1210 murine leukemic cells; test: Inhibition of L1210 murine leukemic cells in tissue culture; assay type: cell-based; settings: Mus musculus, read-out: IC₅₀
[4] = target: T2, Dihydrofolate Reductase (DHFR) (Homo sapiens, UniProt P00374); test: Inhibition of Dihydrofolate Reductase (DHFR); assay type: biochemical
T2 sequence (P00374 1-187): T1 sequence (P00374 1-187)

L-1210 leukemia = test: Increase in life span, % ILS (Table 5, title only as image); assay type: in vivo
[5] = target: T3, Folate Polyglutamate Synthetase (Mus musculus, UniProt P48760); test: Substrate for Folate Polyglutamate Synthetase (partially purified mouse liver FPGS); assay type: biochemical
T3 construct: Incubation with partially purified mouse liver FPGS; from tissue; host or cells: mouse liver
T3 sequence (P48760 43-587): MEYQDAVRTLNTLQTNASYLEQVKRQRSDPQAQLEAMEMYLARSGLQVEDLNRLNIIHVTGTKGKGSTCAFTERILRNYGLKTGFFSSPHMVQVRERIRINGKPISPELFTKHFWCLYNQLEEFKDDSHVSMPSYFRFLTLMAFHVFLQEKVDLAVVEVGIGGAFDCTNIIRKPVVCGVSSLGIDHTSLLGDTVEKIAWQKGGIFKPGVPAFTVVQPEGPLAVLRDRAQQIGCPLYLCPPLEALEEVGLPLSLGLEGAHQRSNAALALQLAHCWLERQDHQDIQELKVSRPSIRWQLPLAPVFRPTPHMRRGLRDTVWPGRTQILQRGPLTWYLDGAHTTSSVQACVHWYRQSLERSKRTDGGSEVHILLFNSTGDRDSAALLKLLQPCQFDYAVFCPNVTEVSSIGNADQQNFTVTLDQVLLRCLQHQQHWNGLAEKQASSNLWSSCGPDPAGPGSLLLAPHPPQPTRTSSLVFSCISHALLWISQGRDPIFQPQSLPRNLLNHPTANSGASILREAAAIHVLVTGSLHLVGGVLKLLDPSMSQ

[6] = system: Methotrexate-Resistant L-1210 Leukemia; test: Effect on Methotrexate-Resistant L-1210 Leukemia; assay type: in vivo; settings: for Mean Increased Life span in days: in vivo
6C3HED Lymphosarcoma = test: Subcutaneous tumor growth inhibition in mice; settings: mouse, in vivo
Lewis Lung Carcinoma = test: Subcutaneous tumor growth inhibition in mice; settings: mouse, in vivo
[7] = system: X5563 Plasma Cell Myeloma; settings: mouse, in vivo
Madison Lung = test: Subcutaneous tumor growth inhibition in mice; settings: mouse, in vivo
B-16 = test: Subcutaneous tumor growth inhibition in mice; settings: mouse, in vivo
[8] = system: C3H Mammary Adenocarcinoma; test: Subcutaneous tumor growth inhibition in mice; settings: mouse, in vivo
[9] = target: T3, Folate Polyglutamate Synthetase; settings: relative to folic acid; published data (Moran et al.); cited from earlier work
[10] = relative to folic acid, one hour at 37°C

Nc1nc(N)c2cc(CCc3ccc(C(=O)N[C@@H](CCC(=O)O)C(=O)O)cc3)ccc2n1 [5,8,10-trideazaaminopterin]
activity against mouse L1210 leukemia (in words) (mouse L1210 leukemia): exhibits activity

Nc1nc2ccc(CCc3ccc(C(=O)N[C@@H](CCC(=O)O)C(=O)O)cc3)cc2c(=O)[nH]1 [5,8,10-trideazafolic acid]
activity against mouse L1210 leukemia (in words) (mouse L1210 leukemia): only marginal activity

Nc1nc2ncc(CNc3ccc(C(=O)N[C@@H](CCC(=O)O)C(=O)O)cc3)cc2c(=O)[nH]1 [5-Deazafolic acid]
cytotoxicity (in words) [1]: only weakly cytotoxic

Nc1nc(N)c2nc(CCc3ccc(C(=O)N[C@@H](CCC(=O)O)C(=O)O)cc3)ccc2n1 [8,10-Dideazaaminopterin]
antimetabolic activity (in words) [2]: active

Nc1nc2ccc(CCc3ccc(C(=O)N[C@@H](CCC(=O)O)C(=O)O)cc3)nc2c(=O)[nH]1 [8,10-Dideazafolic acid]
effectiveness as a dihydrofolate reductase inhibitor (in words) (dihydrofolate reductase): only marginally effective

Nc1nc(N)c2nc(CCc3ccc(C(=O)N[C@@H](CCC(=O)O)C(=O)O)cc3)cnc2n1 [10-Deaza-aminopterin]
antimetabolic activity (in words) [2]: highly active

Nc1nc2ncc(CCc3ccc(C(=O)N[C@@H](CCC(=O)O)C(=O)O)cc3)nc2c(=O)[nH]1 [10-deazafolic acid]
antimetabolic activity (in words) [2]: no significant activity

Nc1nc(N)c2cc(CCc3ccc(C(=O)N[C@@H](CCC(=O)O)C(=O)O)cc3)cnc2n1 [Compound 1, N-(4-[2(2,4-diaminopyrido[2,3-d]-pyrimidin-6-yl)ethyl]benzoyl)-L-glutamic acid]
pIC50 [3]: 7.77 | pIC50 [4]: 7.37 | % ILS (L-1210 leukemia; dose 4 mg/kg): 130% | Rel Vmax [5, 10]: 0.35 ± 0.02

Nc1nc(O)c2cc(CCc3ccc(C(=O)N[C@@H](CCC(=O)O)C(=O)O)cc3)cnc2n1 [Compound 2, N-(4-[2-(2-amino-4-hydroxypyrido[2,3-d]pyrimidin-6-yl)ethyl]benzoyl)-L-glutamic acid]
pIC50 [3]: < 4.00 | pIC50 [4]: 4.31 | Rel Vmax [5, 10]: 0.90 ± 0.10

Nc1nc(N)c2c(n1)NCC(CCc1ccc(C(=O)N[C@@H](CCC(=O)O)C(=O)O)cc1)C2 (stereo partly drawn) [Compound 3, N-(4-[2-(2,4-diamino-5,6,7,8-tetrahydropyrido[2,3-d]pyrimidin-6-yl)ethyl]benzoyl)-L-glutamic acid]
pIC50 [3]: 8.48 | pIC50 [4]: 7.15 | % ILS (L-1210 leukemia; dose 1 mg/kg): 111% | Rel Vmax [5, 10]: 1.61 ± 0.05

Nc1nc2c(c(=O)[nH]1)CC(CCc1ccc(C(=O)N[C@@H](CCC(=O)O)C(=O)O)cc1)CN2 (stereo partly drawn) [Compound 4, N-(4-[2-(2-amino-4-hydroxy-5,6,7,8-tetrahydropyrido[2,3-d]pyrimidin-6-yl)ethyl]benzoyl)-L-glutamic acid]
Mean Increased Life span in days ([6]; 2 mg/kg): +8 days | Mean Increased Life span in days ([6]; 4 mg/kg): +11 days | Mean Increased Life span in days ([6]; 8 mg/kg): +17 days | Mean Increased Life span in days ([6]; 12 mg/kg): +25 days | % INHIBITION (6C3HED Lymphosarcoma): 91% and 100% | % INHIBITION (Lewis Lung Carcinoma): 58% and 77% and 94% and 100% | % INHIBITION [7]: 100% | toxicity (footnote) [7]: † Toxic | % INHIBITION (Madison Lung): 54% and 72% and 87% and 90% | inhibition of dihydrofolate reductase (in words) [4]: weak inhibitor | % INHIBITION (B-16): 98% and 99% and 100% | % INHIBITION [8]: 86% and 100% | activity against L-1210 leukemia (in words) (L-1210 leukemia; in vivo): good activity | % ILS (L-1210 leukemia; in vivo, 2 mg/kg): 27% | % ILS (L-1210 leukemia; in vivo, 4 mg/kg): 35% | % ILS (L-1210 leukemia; in vivo, 8 mg/kg): 59% | % ILS (L-1210 leukemia; in vivo, 12 mg/kg): 63% | Rel Vmax [5]: 1.24 ± 0.10

Nc1nc2c(c(=O)[nH]1)NC(CNc1ccc(C(=O)N[C@@H](CCC(=O)O)C(=O)O)cc1)CN2 (some centres unmarked) [FH4]
Rel Vmax [9]: 1.31 ± 0.07

CN(Cc1cnc2nc(N)nc(N)c2n1)c1ccc(C(=O)N[C@@H](CCC(=O)O)C(=O)O)cc1 [Methotrexate, methotrexate, reference compound]
Mean Increased Life span ([6]; dose 2 mg/kg): 0 days
